In brackets after ≈: the same amount, converted by molar mass.

This is an account of results in patent US4843087A (priority 1986, dated 1989).

Assay [1] concerns poliovirus, type 2, MEF strain. Kind of assay: animal or person. It is filed as in vivo, white Swiss mice. The conditions noted are these: Enterovirus C, in Mus musculus, po, 336 h, read-out: Survivors Day 14 Post Infection.
Assay [2] relates to human rhinovirus (HRV) serotypes. The experiment in a line: microbe, parasite or virus in culture. To be noted: for MIC50: read-out: Rhinovirus MIC50; for IC (MIC80 of serotype panel): read-out: Rhinovirus MIC80. The class given is cell-based.
The test system of another assay is Polio 2. The experiment in a line: microbe, parasite or virus in culture. To be noted: Enterovirus C, HeLa, read-out: Polio 2 MIC. It is filed as cell-based, poliovirus.

`Cc1cc(CCCCCOc2ccc(C3=NCCO3)cc2Cl)on1` [15(b), 5-{5-[2-Chloro-4-(4,5-dihydro-2-oxazolyl)phenoxy]pentyl}-3-methylisoxazole]: in assay [1], the responders at 50 mg/kg was 40% and the responders at 100 mg/kg is 60%. Besides, in assay [2], the MIC50 stood at 0.08 µg/mL (≈ 0.229 µM) and the IC (MIC80 of serotype panel) worked out at 0.35 µg/mL. Moreover, the MIC with Polio 2 worked out at 0.12 µg/mL (≈ 0.344 µM).

For `Cc1cc(CCCCCCCOc2ccc(C3=NC(C)CO3)cc2)on1` (racemic) [Example 3, 5-{7-[4-(4,5-Dihydro-4-methyl-2-oxyazolyl)phenoxy]heptyl}-3-methylisoxazole], in assay [1], the responders at 100 mg/kg was 45%, the responders at 200 mg/kg was 60% and the responders at 400 mg/kg was 70%. Also, in assay [2], the MIC50 was 0.07 µg/mL (≈ 0.196 µM) and the IC (MIC80 of serotype panel) was 1.6 µg/mL. Besides, the MIC in the assay on Polio 2 came out at 1.2 µg/mL (≈ 3.37 µM).

Consider `Cc1cc(CCCCCCCOc2ccc(C3=NCCO3)cc2Cl)on1` [13(c), 5-{7-[2-Chloro-4-(4,5-dihydro-2-oxazolyl)phenoxy]heptyl}-3-methylisoxazole], for which, in assay [1], the responders at 25 mg/kg came out at 20%, the responders at 50 mg/kg is 61.1% and the responders at 100 mg/kg is 80%. In assay [2], the MIC50 stood at 0.34 µg/mL (≈ 0.902 µM) and the IC (MIC80 of serotype panel) stood at 1.06 µg/mL. Moreover, in the assay with Polio 2, the MIC came to 0.17 µg/mL (≈ 0.451 µM).

On to `Cc1cc(CCCCCCCc2ccc(C3=NCCO3)cc2)on1` [6(g), 5-{7-[4-(4,5-Dihydro-2-oxazolyl)phenyl]heptyl}-3-methylisoxazole], for which, in assay [1], the responders at 50 mg/kg is 25%, the responders at 100 mg/kg is 85% and the responders at 200 mg/kg was 95%. Besides, the MIC in the assay with Polio 2 is 0.09 µg/mL (≈ 0.276 µM).

As to `COc1cc(C(=O)NCCCl)cc(OC)c1OCCCCCc1cc(C)no1` [158(b), N-(2-Chloroethyl)-3,5-dimethoxy-4-{[5-(3-methyl-5-isoxazolyl)pentyl]oxy}benzamide], in assay [2], the MIC50 amounted to 1.73 µg/mL (≈ 4.21 µM) and the IC (MIC80 of serotype panel) came to 4.7 µg/mL. In addition, in the assay with Polio 2, the MIC is 2 µg/mL (≈ 4.87 µM).

Consider `Cc1cc(CCC=CCOc2ccc(C3=NCCO3)cc2Cl)on1` [Example 68, 5-{5-[2-Chloro-4-(4,5-dihydro-2-oxazolyl)phenoxy]-3-pentenyl}-3-methylisoxazole], for which, in assay [2], the MIC50 turned out to be 0.4 µg/mL (≈ 1.15 µM) and the IC (MIC80 of serotype panel) is 1 µg/mL. The MIC with Polio 2 came to 0.23 µg/mL (≈ 0.663 µM).

For the compound `Cc1cc(CCCCCCOc2ccc(C3=NC(C)CO3)cc2Cl)on1` (stereo not drawn) [Example 48, 5-{6-[2-Chloro-(4,5-dihydro-4-methyl-2-oxazolyl)phenoxy]hexyl}-3-methylisoxazole], in assay [2], the MIC50 was 0.13 µg/mL (≈ 0.345 µM) and the IC (MIC80 of serotype panel) was 0.37 µg/mL. For the same compound, in the assay with Polio 2, the MIC turned out to be 2.3 µg/mL (≈ 6.1 µM).

Turning to `Cc1cc(CCCCCOc2c(Cl)cc(C(=O)NCCCl)cc2Br)on1` [152(c), 3-Bromo-5-chloro-N-(2-chloroethyl)-4-{[5-(3-methyl-5-isoxazolyl)pentyl]oxy}benzamide], in assay [2], the MIC50 was 0.14 µg/mL (≈ 0.302 µM) and the IC (MIC80 of serotype panel) was 0.6 µg/mL. Besides, in the assay with Polio 2, the MIC is 2.1 µg/mL (≈ 4.52 µM).

As to `Cc1cc(CCCCCOc2ccc(C3=NCCO3)cc2C(=O)O)on1` [Example 86, 5-{5-[2-Carboxy-4-(4,5-dihydro-2-oxazolyl)phenoxy]pentyl}-3-methylisoxazole], in assay [2], the MIC50 was 99 µg/mL (≈ 276 µM) and the IC (MIC80 of serotype panel) came out at 99 µg/mL. The MIC in the assay on Polio 2 stood at 2.6 µg/mL (≈ 7.25 µM).

For the compound `Cc1cc(CCCCCCCOc2ccc(C3=NCCCO3)cc2)on1` [94(c), 5,6-Dihydro-2-{4-[7-(3-methyl-5-isoxazolyl)heptyloxy]phenyl}-4H-1,3-oxazine], in assay [2], the MIC50 amounted to 1.06 µg/mL (≈ 2.97 µM) and the IC (MIC80 of serotype panel) is 99 µg/mL. Further, the MIC with Polio 2 was 0.8 µg/mL (≈ 2.24 µM).

With `Cc1cc(CCCCOc2ccc(C3=NC(C)CO3)cc2)on1` (stereo not drawn) [Example 64, 5-{4-[4-(4,5-Dihydro-4-methyl-2-oxazoly)phenoxy]butyl}-3-methylisoxazole], in assay [2], the MIC50 turned out to be 0.485 µg/mL (≈ 1.54 µM) and the IC (MIC80 of serotype panel) is 25.6 µg/mL. Besides, the MIC in the assay with Polio 2 was 2.4 µg/mL (≈ 7.63 µM).

On to `Cc1cc(CCCCCCCOc2c(Cl)cc(C3=NCCO3)cc2Cl)on1` [Example 114, 5-{7-[2,6-Dichloro-4-(4,5-dihydro-2-oxazolyl)phenoxy]heptyl}-3-methylisoxazole], for which, in assay [2], the MIC50 was determined as 0.22 µg/mL (≈ 0.535 µM) and the IC (MIC80 of serotype panel) stood at 0.62 µg/mL. Besides, the MIC in the assay with Polio 2 worked out at 0.48 µg/mL (≈ 1.17 µM).

For `Cc1cc(CC/C=C/COc2c(Cl)cc(C3=NCCO3)cc2Cl)on1` [Example 113, 5-{5-[2,6-Dichloro-4-(4,5-dihydro-2-oxazolyl)phenoxy]-3-pentenyl}-3-methylisoxazole (E-isomer)], in assay [2], the MIC50 came to 0.09 µg/mL (≈ 0.236 µM) and the IC (MIC80 of serotype panel) turned out to be 0.167 µg/mL. Further, in the assay with Polio 2, the MIC was determined as 0.4 µg/mL (≈ 1.05 µM).

For `Cc1cc(CCCCCOc2ccc(C3=NC(C)CO3)cc2Cl)on1` (stereo not drawn) [Example 32, 5-{5-[2-Chloro-4-(4,5-dihydro-4-methyl-2-oxazolyl)phenoxy]pentyl}-3-methylisoxazole], in assay [2], the MIC50 was 0.09 µg/mL (≈ 0.248 µM) and the IC (MIC80 of serotype panel) stood at 0.27 µg/mL. In the assay on Polio 2, the MIC came to 1.3 µg/mL (≈ 3.58 µM).

For the compound `Cc1cc(CCCCCCCOc2ccc(C3=NCCO3)c(Cl)c2)on1` [Example 50, 5-{7-[3-Chloro-4(4,5-dihydro-2-oxazolyl)phenoxy]heptyl}-3-methylisoxazole], in assay [2], the MIC50 was 5.05 µg/mL (≈ 13.4 µM) and the IC (MIC80 of serotype panel) is 99 µg/mL. The MIC in the assay on Polio 2 came out at 0.7 µg/mL (≈ 1.86 µM).

Turning to `Cc1cc(CCCCCOc2ccc(C3=NCCO3)c(C)c2C)on1` [Example 79, 5-{5-[4-(4,5-Dihydro-2-oxazolyl)-2,3-dimethylphenoxy]pentyl}-3-methylisoxazole], in assay [2], the MIC50 was found to be 0.3 µg/mL (≈ 0.876 µM) and the IC (MIC80 of serotype panel) turned out to be 0.7 µg/mL. For the same compound, in the assay on Polio 2, the MIC worked out at 2.3 µg/mL (≈ 6.72 µM).

On to `Cc1cc(CCCCCOc2ccc(C3=NCCO3)cc2F)on1` [Example 20, 5-{5-[4-(4,5-Dihydro-2-oxazolyl)-2-fluorophenoxy]pentyl}-3-methylisoxazole], for which, in assay [2], the MIC50 came to 0.38 µg/mL (≈ 1.14 µM) and the IC (MIC80 of serotype panel) stood at 26.9 µg/mL. Further, in the assay on Polio 2, the MIC worked out at 0.1 µg/mL (≈ 0.301 µM).

In the case of `Cc1cc(CCCCCCCOc2ccc(C3=NCCO3)cc2C)on1` [31(b), 5-{7-[4-(4,5-Dihydro-2-oxazolyl)-2-methylphenoxy]heptyl}-3-methylisoxazole], in assay [2], the MIC50 worked out at 0.15 µg/mL (≈ 0.421 µM) and the IC (MIC80 of serotype panel) came out at 0.56 µg/mL. In the assay with Polio 2, the MIC worked out at 0.36 µg/mL (≈ 1.01 µM).

For `Cc1cc(CCCCCOc2c(Cl)cc(C(=O)NCCCl)cc2[N+](=O)[O-])on1` [153(c), 3-Chloro-N-(2-chloroethyl)-4-{[5-(3-methyl-5-isoxazolyl)pentyl]oxy}-5-nitrobenzamide], in assay [2], the MIC50 came out at 0.08 µg/mL (≈ 0.186 µM) and the IC (MIC80 of serotype panel) was 0.23 µg/mL. Moreover, the MIC with Polio 2 amounted to 0.86 µg/mL (≈ 2 µM).

Regarding `Cc1cc(CCCCCOc2ccc(C3=NCCO3)cc2N)on1` [Example 49, 5-{5-[2-Amino-4-(4,5-dihydro-2-oxazoyl)phenoxy]pentyl}-3-methylisoxazole], in assay [2], the MIC50 was found to be 1.1 µg/mL (≈ 3.34 µM) and the IC (MIC80 of serotype panel) is 4.6 µg/mL. The MIC with Polio 2 was determined as 2 µg/mL (≈ 6.07 µM).

In the case of `Cc1cc(CCCCCOc2ccc(-c3nc(C)co3)cc2)on1` [Example 133, 5-{5-[4-(4-Methyl-2-oxazolyl)phenoxy]pentyl}-3-methylisoxazole], in assay [2], the MIC50 was 0.16 µg/mL (≈ 0.49 µM) and the IC (MIC80 of serotype panel) was 0.68 µg/mL. Further, the MIC with Polio 2 amounted to 0.09 µg/mL (≈ 0.276 µM).

In the case of `Cc1cc(CCCCCOc2ccc(C3=NCCO3)cc2C)on1` [Example 46, 5-{5-[4-(4,5-Dihydro-2-oxazolyl)-2-methylphenoxy]pentyl}-3-methylisoxazole], in assay [2], the MIC50 worked out at 0.09 µg/mL (≈ 0.274 µM) and the IC (MIC80 of serotype panel) amounted to 0.2 µg/mL. Further, in the assay with Polio 2, the MIC stood at 0.1 µg/mL (≈ 0.304 µM).
